Source: US20260008793A1, “IONIZABLE CATIONIC LIPIDS INCORPORATING SILICON” (ALDEXCHEM KFT., priority 2022, published 2026)

Columns and labels:
Assay type in all cases: physicochemical
[1] = physchem
Procedure: The synthesized lipids were tested in term of in vitro transfection efficacy and toxicity on HeLa cells. In order to perform the mentioned biological tests, appropriate LNPs had to be formulated from the synthesized lipids. The formulation technique was different in Method A and B. The particle size, PDI and zeta potential of resulting LNPs were determined by means of Dynamic Light Scattering technique (DLS). Prior to biological testing the encapsulation efficiency (EE) of the loaded LNPs was determined by using RiboGreen RNA assay. In case of Method A Luciferase-mRNA while in case of Method B GFP-mRNA was transfected into the cells. In parallel with the transfection experiments, toxicity of the investigated LNPs was determined, in case of Method A resazurin assay while in case of Method B MTT assay was used. In the case of some lipids, the apparent pKa in LNPs was determined by using TNS titration based on the method described: Angew Chem Int Ed Engl. 2012, 51 (34), 8529-8533, doi: 10.1002/anie.201203263).

[2] = Encapsulation efficiency, RiboGreen RNA assay (Method A); details: LNP formulated by Method A
How it was run: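 mRNA-LNPs (Method A formulation) diluted in TE buffer pH 7.4/7.5 and measured in duplicate with and without Triton lysis (37° C., 10 min). RiboGreen fluorescence read at ex 480/em 525. mRNA quantified against a standard curve.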

[3] = LNP size, PDI and zeta potential by Dynamic Light Scattering (Method A); details: LNP formulated by Method A; for Zeta potential (mV): 1xPBS pH 7.4; for PDI / Size (nm): DLS; for Size (nm): Luciferase-mRNA loaded
How it was run: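 Dynamic light scattering gave particle size, PDI and zeta potential of the LNPs. These were made by microfluidic mixing, 3:1 aqueous to ethanol, of mRNA in 10 mM citrate pH 4.0 with a lipid master mix carrying the ionizable lipid, then dialysed through 100 kDa MWCO tubing.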

Row | Structure (SMILES) | pKa [1] | EE (%) [2] | Zeta potential (mV) [3] | PDI [3] | Size (nm) [3]
1 | CCCCCCCCCCSC(CCCC)C(=O)OCCCCCCN(CCCCO)CCCCCCOC(CCCCCCC)O[Si](C)(C)CCCCCCCC (stereo not drawn) [Example 167, 15-heptyl-7-(4-hydroxybutyl)-17,17-dimethyl-14,16-dioxa-7-aza-17-silapentacosyl 2-(decylthio)hexanoate] | 6.42 | 98% | −13.69 mV | 0.04 | 202.9 nm
2 | CCCCCCCCCCSC(CCCC)C(=O)OCCCCCCN(CCCCO)CCCCCCO[Si](C)(C)OC(CCCCCCC)OCCCCCCCC (stereo not drawn) [Example 176, 17-heptyl-7-(4-hydroxybutyl)-15,15-dimethyl-14,16,18-trioxa-7-aza-15-silahexacosyl 2-(decylthio)hexanoate] | 6.48 | 95% | −15.0 mV | 0.18 | 175.00 nm
3 | CCCCCCCCOC(CCCCCCC)O[Si](C)(C)OCCCCCCN(CCCCO)CCCCCCOC(=O)C(CCCCCCCC)SCCCCC (stereo not drawn) [Example 188, 17-heptyl-7-(4-hydroxybutyl)-15,15-dimethyl-14,16,18-trioxa-7-aza-15-silahexacosyl 2-(pentylthio)decanoate] | 6.34 | 98% | −18.1 mV | 0.08 | 160.0 nm
4 | CCCCCCCCCCCOC(=O)CCCCCN(CCO)CCCCCCCCCOC(CCCCCCC)O[Si](C)(C)CCCCCC (stereo not drawn) [Example 209, undecyl 9-heptyl-20-(2-hydroxyethyl)-7,7-dimethyl-8,10-dioxa-20-aza-7-silahexacosan-26-oate] | 6.61 | 97% | −12.11 mV | 0.018 | 161.6 nm
5 | CCCCCCCCCCCOC(=O)CCCCCN(CCO)CCCCCCCCCC(OCCCCCCCC)O[Si](C)(C)CCCCCC (stereo not drawn) [Example 210, undecyl 6-((10-((hexyldimethylsilyl)oxy)-10-(octyloxy)decyl)(2-hydroxyethyl)amino)hexanoate] | 6.4 | 99% | −18.75 mV | 0.097 | 181.2 nm
6 | CCCCCCCCOC(CCCCCN(CCCCO)CCC[C@@H](C)C1CCC2C3CCC4C[C@H](OC)CC[C@]4(C)C3CC[C@@]21C)O[Si](C)(C)O[Si](C)(C)CCCCCCCC (stereo partly drawn) [Example 218, 4-(((4R)-4-((3R,10S,13R)-3-methoxy-10,13-dimethylhexadecahydro-1H-cyclopenta[a]phenanthren-17-yl)pentyl)(6-(octyloxy)-6-((1,1,3,3-tetramethyl-3-octyldisiloxaneyl)oxy)hexyl)amino)butan-1-ol] | – | 97% | −12.88 mV | 0.028 | 165.6 nm
7 | CCCCCCCC[Si](C)(C)O[Si](C)(C)OC(CCCCCCC)OCCCCCCN(CCCCO)CCC[C@@H](C)C1CCC2C3CCC4C[C@H](OC)CC[C@]4(C)C3CC[C@@]21C (stereo partly drawn) [Example 219, 13-heptyl-5-((4R)-4-((3R,10S,13R)-3-methoxy-10,13-dimethylhexadecahydro-1H-cyclopenta[a]phenanthren-17-yl)pentyl)-15,15,17,17-tetramethyl-12,14,16-trioxa-5-aza-15,17-disilapentacosan-1-ol] | – | 98% | −16.69 mV | 0.076 | 139.4 nm
8 | CCCCCCCCOC(CCCCCN(CCCCO)CCC[C@@H](C)C1CCC2C3CCC4C[C@H](OC)CC[C@]4(C)C3CC[C@@]21C)O[Si](C)(C)O[Si](C)(C)OCCCCCCCC (stereo partly drawn) [Example 220, 4-(((4R)-4-((3R,10S,13R)-3-methoxy-10,13-dimethylhexadecahydro-1H-cyclopenta[a]phenanthren-17-yl)pentyl)(6-(octyloxy)-6-((1,1,3,3-tetramethyl-3-(octyloxy)disiloxaneyl)oxy)hexyl)amino)butan-1-ol] | – | 98% | −14.55 mV | 0.002 | 138.4 nm
9 | CCCCCCCCO[Si](C)(C)O[Si](C)(C)OC(CCCCCCC)OCCCCCCN(CCCCO)CCC[C@@H](C)C1CCC2C3CCC4C[C@H](OC)CC[C@]4(C)C3CC[C@@]21C (stereo partly drawn) [Example 221, 13-heptyl-5-((4R)-4-((3R,10S,13R)-3-methoxy-10,13-dimethylhexadecahydro-1H-cyclopenta[a]phenanthren-17-yl)pentyl)-15,15,17,17-tetramethyl-12,14,16,18-tetraoxa-5-aza-15,17-disilahexacosan-1-ol] | – | 96% | −13.99 mV | 0.011 | 142.1 nm
10 | CCCCCCCCOC(CCCCCN(CCCCO)CCC[C@@H](C)C1CCC2C3CCC4C[C@H](OC)CC[C@]4(C)C3CC[C@@]21C)O[Si](C)(C)OCC(CCCCCC)CCCCCCCC (stereo partly drawn) [Example 222, 16-hexyl-5-((4R)-4-((3R,10S,13R)-3-methoxy-10,13-dimethylhexadecahydro-1H-cyclopenta[a]phenanthren-17-yl)pentyl)-13,13-dimethyl-11-(octyloxy)-12,14-dioxa-5-aza-13-silatetracosan-1-ol] | – | 94% | −16.36 mV | 0.121 | 164.5 nm
11 | CCCCCCCCC(CCCCCC)CO[Si](C)(C)OC(CCCCCCC)OCCCCCCN(CCCCO)CCC[C@@H](C)C1CCC2C3CCC4C[C@H](OC)CC[C@]4(C)C3CC[C@@]21C (stereo partly drawn) [Example 223, 13-heptyl-18-hexyl-5-((4R)-4-((3R,10S,13R)-3-methoxy-10,13-dimethylhexadecahydro-1H-cyclopenta[a]phenanthren-17-yl)pentyl)-15,15-dimethyl-12,14,16-trioxa-5-aza-15-silahexacosan-1-ol] | – | 94% | −13.68 mV | 0.15 | 206.5 nm
12 | CCCCCCCCOC(CCCCCCC)O[Si](C)(C)CCCCCCN(CCCCO)CCC[C@@H](C)C1CCC2C3CCC4C[C@H](OC)CC[C@]4(C)C3CC[C@@]21C (stereo partly drawn) [Example 224, 14-heptyl-5-((4R)-4-((3R,10S,13R)-3-methoxy-10,13-dimethylhexadecahydro-1H-cyclopenta[a]phenanthren-17-yl)pentyl)-12,12-dimethyl-13,15-dioxa-5-aza-12-silatricosan-1-ol] | – | 97% | −16.58 mV | 0.08 | 176.5 nm
13 | CCCCCCCCOC(CCCCCCC)O[Si](C)(C)OCCCCCCN(CCCCO)CCC[C@@H](C)C1CCC2C3CCC4C[C@H](OC)CC[C@]4(C)C3CC[C@@]21C (stereo partly drawn) [Example 225, 15-heptyl-5-((4R)-4-((3R,10S,13R)-3-methoxy-10,13-dimethylhexadecahydro-1H-cyclopenta[a]phenanthren-17-yl)pentyl)-13,13-dimethyl-12,14,16-trioxa-5-aza-13-silatetracosan-1-ol] | – | 98% | −13.58 mV | 0.04 | 117.9 nm
